Test results taken from patent US20230250096A1, “SUBSTITUTED PHENYL-1H-PYRROLO[2,3-c] PYRIDINE DERIVATIVES” (Janssen Pharmaceutica NV, priority 2021, published 2023).
Where two headings read alike, the source gives them in different places.

How the values were obtained:
Type in all cases: cell-based, human
[1] = test system: MOLM14 cells; test: Proliferation assay (spheroid confluence, 8 days), MOLM14; settings: read-out: spheroid assay_MOLM14 IC50
Experimental: (§1) The anti-proliferative effect of menin/MLL protein/protein interaction inhibitor test compounds was assessed in human leukemia cell lines. The cell line MOLM14 harbors a MLL translocation and expresses the MLL fusion protein MLL-AF9, respectively, as well as the wildtype protein from the second allele. OCI-AML3 cells that carry the NPM1c gene mutation were also tested. […] KO-52 was used as a control cell line containing two MLL (KMT2A) wildtype alleles in order to exclude compounds that display general cytotoxic effects.
(§2) MOLM14 cells were cultured in RPMI-1640 (Sigma Aldrich) supplemented with 10% heat-inactivated fetal bovine serum (HyClone), 2 mM L-glutamine (Sigma Aldrich) and 50 μg/ml gentamycin (Gibco). KO-52 and OCI-AML3 cell lines were propagated in alpha-MEM (Sigma Aldrich) supplemented with 20% heat-inactivated fetal bovine serum (HyClone), 2 mM L-glutamine (Sigma Aldrich) and 50 μg/ml gentamycin (Gibco).
(§3) In order to assess the anti-proliferative effects, 200 MOLM14 cells, 200 OCI-AML3 cells or 300 KO-52 cells were seeded in 200 μl media per well in 96-well round bottom, ultra-low attachment plates (Costar, catalogue number 7007). Cell seeding numbers were chosen based on growth curves to ensure linear growth throughout the experiment. Test compounds were added at different concentrations and the DMSO content was normalized to 0.3%. Cells were incubated for 8 days at 37° C. and 5% CO2. Spheroid like growth was measured in real-time by live-cell imaging (IncuCyteZOOM, Essenbio, 4×objective) acquiring images at day 8. Confluence (%) as a measure of spheroid size was determined using an integrated analysis tool.
(§4) In order to determine the effect of the test compounds over time, the confluence in each well as a measure of spheroid size, was calculated. Confluence of the highest dose of a reference compound was used as baseline for the LC (Low control) and the confluence of DMSO treated cells was used as 0% cytotoxicity (High Control, HC).
(§5) Absolute IC50 values were calculated as percent change in confluence as follows:
(§6) LC=Low Control: cells treated with e.g. 1 μM of the cytotoxic agent staurosporin, or e.g. cells treated with a high concentration of an alternative reference compound
(§7) HC=High Control: Mean confluence (%) (DMSO treated cells)
(§8) % Effect=100−(100*(Sample−LC)/(HC−LC))
(§9) GraphPad Prism (version 7.00) was used to calculate the IC50. Dose-response equation was used for the plot of % Effect vs Log10 compound concentration with a variable slope and fixing the maximum to 100% and the minimum to 0%.

[2] = test system: KO-52 cells; test: Proliferation assay (spheroid confluence, 8 days), KO-52 control cell line; settings: Homo sapiens, read-out: spheroid assay_KO-52 IC50
Experimental: as §1, §2, §3, §4, §5, §6, §7, §8, §9

[3] = test system: MEIS1 mRNA expression; test: MEIS1 mRNA expression assay (Quantigene Singleplex) in MOLM14 cells; settings: 48 hours incubation
Summary of the method: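 MOLM14 cells, 3,750/well, exposed to increasing compound concentrations for 48 h. MEIS1 mRNA measured by QuantiGene Singleplex branched-DNA hybridization (lysis 45 min, hybridization 18–22 h, both 55 °C), normalized to RPL28. IC50 fitted to background-corrected fold change versus DMSO.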

Structure (SMILES)	IC50 ([1]; Homo sapiens, MOLM-14, MOLM14) [nM]	IC50 ([3]; Homo sapiens, MOLM-14, 48 h) [nM]	IC50 ([1]; MOLM14) [nM]	IC50 [3] [nM]	IC50 [2] [nM]
CC(=O)N1CCN(CCCC(C(C)C)N2CC[C@@H](Cc3cn(-c4ccc(F)cc4C(=O)N(C)C(C)C)c4cncc(C)c34)C2)CC1 (mixture of isomers) [Compound 8]	11	23	–	–	2400
CC(=O)N1CCN(CCCC(C(C)C)N2CC[C@H](Cc3cn(-c4ccc(F)cc4C(=O)N(C)C(C)C)c4cncc(C)c34)C2)CC1 (mixture of isomers) [Compound 9]	13	23	–	–	5600
CC(=O)N1C[C@@H]2CN([C@H]3C[C@@H](C(C(C)C)N4CC[C@H](Cc5cn(-c6ccc(F)cc6C(=O)N(C)C(C)C)c6cncc(C)c56)C4)C3)C[C@H]2C1 (mixture of isomers) [Compound 21]	< 1.8	< 2.3	–	–	2000
CCC([C@H]1C[C@@H](N2CCN(C(C)=O)CC2)C1)N1CC[C@@H](Cc2cn(-c3ccc(F)cc3C(=O)N(C)C(C)C)c3cncc(C)c23)C1 (mixture of isomers) [Compound 24]	13	71	–	–	8500
Cc1cncc2c1c(C[C@@H]1CCN(CC3CCOCC3)C1)cn2-c1ccc(F)cc1S(=N)(=O)C(C)C (mixture of isomers) [Compound 78]	111	327	–	–	8400
Cc1cncc2c1c(C[C@@H]1CCN(CC3CCNC(=O)CC3)C1)cn2-c1ccc(F)cc1C(=O)N(C)C(C)C (mixture of isomers) [Compound 169]	16	71	–	–	10000
Cc1cncc2c1c(C[C@@H]1CCN(CC3CCNC(=O)C3)C1)cn2-c1ccc(F)cc1C(=O)N(C)C(C)C (mixture of isomers) [Compound 212]	305	322	–	–	> 15000
COCCN(C)CCCC(C(C)C)N1CC[C@H](Cc2cn(-c3ccc(F)cc3C(=O)N(C)C(C)C)c3cncc(C)c23)C1 (single isomer, unassigned) [Compound 2]	1	3	–	–	> 15000
CC(=O)NC1CCC(N2CC[C@@H](Cc3cn(-c4ccc(F)cc4C(=O)N(C)C(C)C)c4cncc(C)c34)C2)CC1 (some centres unmarked) [Compound 201]	–	–	31	47	–
Cc1cncc2c1c(C[C@@H]1CCN(CC3CCN(C(=O)C(C)C)CC3)C1)cn2-c1ccc(F)cc1C(=O)N1CCC[C@H]1CO [Compound 328]	50	~154	–	–	–

Second part, led by results:

IC50 ([1]; Homo sapiens, MOLM-14, MOLM14) [nM]	IC50 ([3]; Homo sapiens, MOLM-14, 48 h) [nM]	IC50 ([1]; MOLM14) [nM]	IC50 [3] [nM]	Structure (SMILES)	IC50 [2] [nM]
132	247	–	–	COCCN(C)CCC[C@H](C(C)C)N1CC[C@H](Cc2cn(-c3ccc(F)cc3C(=O)N(C)C(C)C)c3cncc(Cl)c23)C1 (single isomer, unassigned) [Compound 4a]	7800
3	6	–	–	COCCN(C)CCC[C@@H](C(C)C)N1CC[C@H](Cc2cn(-c3ccc(F)cc3C(=O)N(C)C(C)C)c3cncc(Cl)c23)C1 (single isomer, unassigned) [Compound 4b]	500
2	6	–	–	CC(=O)N1CCN(CCCC(C(C)C)N2CCC(Cc3cn(-c4ccc(F)cc4C(=O)N(C)C(C)C)c4cncc(C)c34)C2)CC1 (single isomer, unassigned) [Compound 9a]	600
3	< 3.3	–	–	CC(=O)N1C[C@@H]2CN(CCC[C@H](C(C)C)N3CC[C@H](Cc4cn(-c5ccc(F)cc5C(=O)N(C)C(C)C)c5cncc(Cl)c45)C3)C[C@H]2C1 (single isomer, unassigned) [Compound 19a]	> 15000
10	13	–	–	Cc1cncc2c1c(C[C@@H]1CCN([C@@H](CO)C3CCCOC3)C1)cn2-c1ccc(F)cc1C(=O)N(C)C(C)C (single isomer, unassigned) [Compound 198a]	–
–	107	–	–	Cc1cncc2c1c(C[C@@H]1CCN([C@H](CO)C3CCCOC3)C1)cn2-c1ccc(F)cc1C(=O)N(C)C(C)C (single isomer, unassigned) [Compound 198b]	> 15000
